Tests used:
[1] = system: spontaneous hypertensive rats (SHR); assay: Hypotensive effect on spontaneous hypertensive rats (intravenously) (Referential Example 1)-3); format: in vivo; settings: Rattus norvegicus, iv, anesthetized SHR, dose descending mean blood pressure by 20%; read-out: ED₂₀ (mg/kg, i.v.)
Protocol: Rats were anesthetized with urethane-α-chloralose (1 g/kg - 25 mg/kg; intraperitoneally). Mean blood pressure was measured by a pressure transducer through a cannula inserted into the carotid artery. The compound was cumulatively administered every 30 minutes through the cannula inserted into the jagular vein. The change in blood pressure was expressed as percent of the blood pressure before the administration of the compound. And the ED₂₀ value, which was the dose required for descending blood pressure to an extent of 20%, was calculated from the dose-response curve.

[2] = system: isolated rat heart; assay: Effect on isolated rat heart (Langendorff's method); settings: 1 × 10⁻⁸ mol/min, mean ± S.D.
Protocol: The effect of the compound of the present invention on heart of rats was examined by using the Langendorff's method [test compound: N-cyano-N′-(2-nitroxyethyl)-3-pyridinecarboximidamide (compound (13))]. Hearts were excised from male rats (weighing 250-350 g) and perfused at 80 cmH₂O in a Langendorff fashion. Krebs-Hensaleit bicarbonate solution (pH 7.4, 37°C) containing an 11 mM glucose which was oxygenated with 95% O₂- 5% CO₂ gas mixture was used as a perfusate. The left ventricular pressure was recorded by inserting a latex baloon into the left ventricle, and heart rate was determined from the pulse of it. Coronary perfusate flow was also measured with an electromagnetic flowmeter. The experiments were carried out by perfusing a perfusate containing the compound (13) for 10 minutes after an initial equilibration period for 30 minutes. As the control compound, nicorandil which has an effect opening potassium channel and is similar to the test compound in structure was used. The changes in the coronary perfusate flow and the cardiac function (heart rate × left ventricular pressure) caused by these compounds were expressed as percent changes from the preperfusion values of the compound (13) or nicorandil.

[3] = system: beagles; assay: Hemodynamic profile in beagles (intravenously); format: in vivo; settings: peak percent change from pretreatment
Protocol: Hemodynamic profile of the compound of the present invention was investigated in beagles anesthetized with pentobarbital (30 mg/kg, intravenously) [test compound: N-cyano-N′-(2-nitroxyethyl)-3-pyridinecarboximidamide (compound (13))]. The thorax was opened under artificial respiration. After administering heparin in an amount of 500 units/kg, a Moravitz's cannula was introduced into the coronary sinus via the right atrium. The coronary sinus outflow was returned to the right external jagular vein. The coronary sinus outflow was measured by an electromagnetic flowmeter (MFU-2100, manufactured by Nihon Kohden) connected to the Moravitz's cannula. A cannula was inserted into the aortic arch through the subclavian artery to measure aortic blood pressure. The aortic blood pressure was measured with a pressure transducer (Nihon Kohden, TP-200T). Heart rate was monitored with a heart rate counter with R waves of electrocardiogram. All parameters were recorded on a thermosensitive recorder (WT-685G, manufactured by Nihon Kohden).
The compound was administered through the cannula inserted into the right femoral vein. Nicorandil was used as a control. As for respective measurement items, peak changes were expressed as percent change from the pretreatment values of the compound (13) or nicorandil.

[4] = system: beagles; assay: Hemodynamic profile in beagles (intraduodenally); format: in vivo; settings: intraduodenal 100 µg/kg, percent change from pretreatment; for Total Peripheral Resistance: mean aortic blood pressure / (coronary + aortic blood flow)
Protocol: The aortic blood pressure, the heart rate and the coronary blood flow of the beagles anesthetized with pentobarbital were determined in the same manner as in the aforementioned Example 1)-7, and the aortic blood flow was measured with an electromagnetic flowmeter (MFV-3100, manufactured by Nihon Kohden) by attaching a probe at the origin of the aorta [test compound: N-cyano-N′-(2-nitroxyethyl)-3-pyridinecarboximidamide (compound (13))]. A nelaton's tube was inserted into the duodenum via a small abdominal incision for administration of the compound (13) (100 µg/kg). Time course changes in respective measurement items were expressed as percent changes from the pretreatment values. Total peripheral resistance was calculated by dividing the mean aortic blood pressure with the sum of the coronary blood flow and the aortic blood flow.

[5] = system: male ddY mice; assay: Effect on hypoxia (survival time in mice); format: in vivo
Protocol: The effect of the compound of the present invention [test compound: N-cyano-N′-(2-nitroxyethyl)-3-pyridinecarboximidamide (compound (13))] on hypoxia was examined in male ddY mice (4 week old). Mice were exposed to a gas mixture of 96% N₂ - 4% O₂ that was streamed in a flow rate of 5 ℓ/min.
The time from the onset of the gas stream till the stop of respiration [survival time (sec)] was measured.
The test compound was orally administered in the dosage form of a 2% suspension in gum arabic 30 minutes before the onset of the gas streaming. The control group was administered a gum arabic suspension only.

[6] = Acute toxicity (oral administration); settings: mouse, in vivo, male ddY mice, read-out: LD₅₀
Protocol: Using male ddY mice (4 week old), acute toxicity on the oral administration of the compound of the present invention was examined [test compound: N-cyano-N′-(2-nitroxyethyl)-3-pyridinecarboximidamide (compound (13))]. As a result, LD₅₀ was about 400 mg/kg.

N#CNC(=NCCO[N+](=O)[O-])c1cccnc1 [Compound (13), N-cyano-N'-(2-nitroxyethyl)-3-pyridinecarboximidamide]
ED20 [1]: 0.01 mg/kg
Coronary Perfusate Flow (% change) ([2]; perfusion 10 minutes): 51.3±3.2 % change
Cardiac Function ([2]; heart rate × left ventricular pressure, percent change from preperfusion): 13.3±6.5%
Coronary Blood Flow ([3]; i.v. 3.0 µg/kg): 16.4±1.8%
Heart Rate ([3]; i.v. 3.0 µg/kg): 1.3±1.4%
Mean Aortic Blood Pressure ([3]; i.v. 3.0 µg/kg): -15.3±2.5%
Coronary Blood Flow ([3]; i.v. 10.0 µg/kg): 96.0±17.6%
Heart Rate ([3]; i.v. 10.0 µg/kg): -5.9±2.8%
Mean Aortic Blood Pressure ([3]; i.v. 10.0 µg/kg): -38.5±3.1%
Coronary Blood Flow ([3]; i.v. 30.0 µg/kg): 134.1±9.2%
Heart Rate ([3]; i.v. 30.0 µg/kg): -16.2±3.3%
Mean Aortic Blood Pressure ([3]; i.v. 30.0 µg/kg): -50.7±2.1%
Aortic Blood Flow ([4]; 1 min after dosage): 10.0%
Coronary Blood Flow ([4]; 1 min after dosage): 1.8± 1.8%
Heart Rate ([4]; 1 min after dosage): 0%
Mean Aortic Blood Pressure ([4]; 1 min after dosage): -9.8± 1.0%
Total Peripheral Resistance ([4]; 1 min after dosage): -17.8%
Aortic Blood Flow ([4]; 2 min after dosage): 12.2%
Coronary Blood Flow ([4]; 2 min after dosage): 14.4± 2.1%
Heart Rate ([4]; 2 min after dosage): 1.6± 1.6%
Mean Aortic Blood Pressure ([4]; 2 min after dosage): -14.3± 1.3%
Total Peripheral Resistance ([4]; 2 min after dosage): -24.1%
Aortic Blood Flow ([4]; 3 min after dosage): 15.1%
Coronary Blood Flow ([4]; 3 min after dosage): 38.4± 9.1%
Heart Rate ([4]; 3 min after dosage): 0%
Mean Aortic Blood Pressure ([4]; 3 min after dosage): -21.2± 1.2%
Total Peripheral Resistance ([4]; 3 min after dosage): -33.7%
Aortic Blood Flow ([4]; 5 min after dosage): 27.0%
Coronary Blood Flow ([4]; 5 min after dosage): 121.5± 22.0%
Heart Rate ([4]; 5 min after dosage): -12.1± 5.1%
Mean Aortic Blood Pressure ([4]; 5 min after dosage): -35.0± 2.0%
Total Peripheral Resistance ([4]; 5 min after dosage): -49.5%
Aortic Blood Flow ([4]; 7.5 min after dosage): 25.5%
Coronary Blood Flow ([4]; 7.5 min after dosage): 142.3± 6.5%
Heart Rate ([4]; 7.5 min after dosage): -17.5± 4.1%
Mean Aortic Blood Pressure ([4]; 7.5 min after dosage): -37.0± 2.9%
Total Peripheral Resistance ([4]; 7.5 min after dosage): -50.3%
Aortic Blood Flow ([4]; 10 min after dosage): 15.0%
Coronary Blood Flow ([4]; 10 min after dosage): 112.8± 10.6%
Heart Rate ([4]; 10 min after dosage): -21.1± 4.4%
Mean Aortic Blood Pressure ([4]; 10 min after dosage): -42.0± 2.9%
Total Peripheral Resistance ([4]; 10 min after dosage): -51.1%
Aortic Blood Flow ([4]; 20 min after dosage): 10.7%
Coronary Blood Flow ([4]; 20 min after dosage): 64.2± 15.4%
Heart Rate ([4]; 20 min after dosage): -26.1± 5.5%
Mean Aortic Blood Pressure ([4]; 20 min after dosage): -49.4± 3.1%
Total Peripheral Resistance ([4]; 20 min after dosage): -55.3%
Aortic Blood Flow ([4]; 30 min after dosage): 8.3%
Coronary Blood Flow ([4]; 30 min after dosage): 60.1± 15.1%
Heart Rate ([4]; 30 min after dosage): -26.5± 4.6%
Mean Aortic Blood Pressure ([4]; 30 min after dosage): -49.0± 3.7%
Total Peripheral Resistance ([4]; 30 min after dosage): -55.8%
Aortic Blood Flow ([4]; 60 min after dosage): 0.5%
Coronary Blood Flow ([4]; 60 min after dosage): 28.0± 11.6%
Heart Rate ([4]; 60 min after dosage): -10.0± 1.4%
Mean Aortic Blood Pressure ([4]; 60 min after dosage): -36.5± 7.3%
Total Peripheral Resistance ([4]; 60 min after dosage): -44.3%
Survival Time (sec) mean ± S.E.M. ([5]; 0.3 mg/kg orally 30 minutes before 96% N₂ - 4% O₂): 130.27 ± 9.32 s
Survival Time (sec) mean ± S.E.M. ([5]; 1.0 mg/kg orally 30 minutes before 96% N₂ - 4% O₂): 201.00 ± 13.40 s
Survival Time (sec) mean ± S.E.M. ([5]; 3.0 mg/kg orally 30 minutes before 96% N₂ - 4% O₂): 523.15 ± 48.57 s
LD50 [6]: ~400 mg/kg

From patent publication EP0388528B1, “Carboximidamide derivatives” (KIRIN BEER KABUSHIKI KAISHA, priority 1988, dated 1990)
